# Reference: PubChem BioAssay (NCI)
#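 GI50 marks 50% less growth. The concentration for full growth arrest is given as TGI.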
# Key:
# Test in all cases: inhibition of tumour cell growth, NCI panel, 384-well format
# UACC-257 melanoma = tested on: UACC-257 melanoma
# NCI/ADR-RES ovarian = tested on: NCI/ADR-RES ovarian
# MDA-MB-435 melanoma = tested on: MDA-MB-435 melanoma
# MALME-3M melanoma = tested on: MALME-3M melanoma
# CAKI-1 renal = tested on: CAKI-1 renal
# SR leukemia = tested on: SR leukemia
# M14 melanoma = tested on: M14 melanoma
# SK-MEL-5 melanoma = tested on: SK-MEL-5 melanoma
# HCT-15 colon = tested on: HCT-15 colon
# MOLT-4 leukemia = tested on: MOLT-4 leukemia
# CCRF-CEM leukemia = tested on: CCRF-CEM leukemia
# HL-60(TB) leukemia = tested on: HL-60(TB) leukemia
# BT-549 breast = tested on: BT-549 breast
# PC-3 prostate = tested on: PC-3 prostate
# IGROV1 ovarian = tested on: IGROV1 ovarian
# SW-620 colon = tested on: SW-620 colon
# NCI-H522 lung = tested on: NCI-H522 lung
# TK-10 renal = tested on: TK-10 renal
# LOX IMVI melanoma = tested on: LOX IMVI melanoma
# HCC-2998 colon = tested on: HCC-2998 colon
# HS 578T breast = tested on: HS 578T breast
# SNB-75 CNS = tested on: SNB-75 CNS
# SK-MEL-28 melanoma = tested on: SK-MEL-28 melanoma
# U251 glioblastoma = tested on: U251 glioblastoma
# UACC-62 melanoma = tested on: UACC-62 melanoma
# SF-295 CNS = tested on: SF-295 CNS
# RPMI-8226 leukemia = tested on: RPMI-8226 leukemia
# HCT-116 colon = tested on: HCT-116 colon
# HOP-92 NSCLC = tested on: HOP-92 NSCLC
compound,measurement,setting,value
Nc1cc(C(F)(F)F)c(-c2nc(N3CCOCC3)nc(N3CCOCC3)n2)cn1,GI50,UACC-257 melanoma,1700 nM
same,TGI,UACC-257 melanoma,20800 nM
same,GI50,NCI/ADR-RES ovarian,1920 nM
same,TGI,NCI/ADR-RES ovarian,17300 nM
same,GI50,MDA-MB-435 melanoma,1600 nM
same,TGI,MDA-MB-435 melanoma,9730 nM
same,GI50,MALME-3M melanoma,174 nM
same,TGI,MALME-3M melanoma,1030 nM
same,GI50,CAKI-1 renal,292 nM
same,TGI,CAKI-1 renal,2950 nM
same,TGI,SR leukemia,255 nM
same,GI50,M14 melanoma,616 nM
same,TGI,M14 melanoma,12500 nM
same,GI50,SK-MEL-5 melanoma,503 nM
same,TGI,SK-MEL-5 melanoma,2810 nM
same,GI50,HCT-15 colon,497 nM
same,TGI,HCT-15 colon,> 100000 nM
same,GI50,MOLT-4 leukemia,293 nM
same,TGI,MOLT-4 leukemia,1610 nM
same,GI50,CCRF-CEM leukemia,1340 nM
same,TGI,CCRF-CEM leukemia,10900 nM
same,GI50,HL-60(TB) leukemia,170 nM
same,TGI,HL-60(TB) leukemia,3430 nM
same,GI50,BT-549 breast,678 nM
same,TGI,BT-549 breast,4420 nM
same,GI50,PC-3 prostate,291 nM
same,TGI,PC-3 prostate,4270 nM
same,GI50,IGROV1 ovarian,119 nM
same,TGI,IGROV1 ovarian,468 nM
same,GI50,SW-620 colon,2600 nM
same,TGI,SW-620 colon,> 100000 nM
same,GI50,NCI-H522 lung,360 nM
same,TGI,NCI-H522 lung,10200 nM
same,GI50,TK-10 renal,432 nM
same,TGI,TK-10 renal,3870 nM
same,GI50,LOX IMVI melanoma,1570 nM
same,TGI,LOX IMVI melanoma,9360 nM
same,GI50,HCC-2998 colon,1100 nM
same,TGI,HCC-2998 colon,48900 nM
same,GI50,HS 578T breast,276 nM
same,TGI,HS 578T breast,1860 nM
same,GI50,SNB-75 CNS,288 nM
same,TGI,SNB-75 CNS,2920 nM
same,GI50,SK-MEL-28 melanoma,461 nM
same,TGI,SK-MEL-28 melanoma,6540 nM
same,GI50,U251 glioblastoma,3230 nM
same,TGI,U251 glioblastoma,95500 nM
same,GI50,UACC-62 melanoma,520 nM
same,TGI,UACC-62 melanoma,3790 nM
same,GI50,SF-295 CNS,405 nM
same,TGI,SF-295 CNS,2440 nM
same,GI50,RPMI-8226 leukemia,221 nM
same,TGI,RPMI-8226 leukemia,1270 nM
same,GI50,HCT-116 colon,833 nM
same,TGI,HCT-116 colon,22500 nM
same,GI50,HOP-92 NSCLC,274 nM
same,TGI,HOP-92 NSCLC,2120 nM
